Drawing on paper PMC3902948 (Nucleic Acids Research, 2013), this text covers Km for one compound.

Each structure is given as a SMILES string.

Common to all, as to conditions: read-out: In absence of RNA / KM; no RNA; 100 mM NaCl, 10 mM Tris pH 7.5, 2 mM MgCl2
For assay [1], the system named is Prp43-Ntr1(51–102).
The test system of assay [2] is Prp43(1–745)-Ntr1(51–110).
The test system of assay [3] is Prp43-Ntr1(51–110).
Assay [4] deals with Prp43-Ntr1(62–110).
Assay [5] has as its system Prp43-Ntr1(59–110).
Assay [6] deals with Prp43-Ntr1(51–99).

As for `Nc1ncnc2c1ncn2[C@@H]1O[C@H](COP(=O)(O)OP(=O)(O)OP(=O)(O)O)[C@@H](O)[C@H]1O` [ATP], the Km was 17.5 ± 2.43 µM in assay [1]; 28.3 ± 4.61 µM in assay [2]; 39.5 ± 3.92 µM in assay [3]; 10.6 ± 2.18 µM in assay [4]; 8.77 ± 1.09 µM in assay [5]; 10.7 ± 1.38 µM in assay [6].
